Test results: patent publication US9101566B2, “Fermentation product of cereal plant-derived material and immunomodulator” (KIRIN HOLDINGS KABUSHIKI KAISHA, priority 2009, dated 2015)

Columns and labels:
[1] = tested on: mDCs treated with 14-DHE co-cultured with naive CD4+ T cells; assay: Antigen-non-specific Treg-inducing capacity (MLR) of DCs treated with 14-DHE (Example 10); type: cell-based, mouse
Description: In a manner similar to that in the above Examples, DCs were induced using Flt-3L from BALB/c mouse bone marrow cells in the presence of a processed product of wheat bran fermented with koji and then treated with LPS for 24 hours. mDCs were sorted from the thus obtained cells in a manner similar to that in Example 3 and then subjected to mitomycin C treatment to stop the DC proliferation.
Next, naive CD4^+ T cells were sorted from C57BL/6, DCs and the sorted cells were mixed at DC:CD4^+T=1:10 (the number of cells), and then they were co-cultured. At this time, the medium was supplemented with 0.5 ng/mL TGF-β1 (Peprotech).
Seven days layer, cells were recovered and then the proportion of FoxP3^+CD25^+ T cells in CD^+ T cells was determined using a flow cytometer (after staining of cell surface markers using anti-CD25-FITC, anti-CD3-APC-Cy7, and anti-CD4-PerCP, cell permeabilization treatment was performed using a Foxp3 Staining Buffer Set (e Bioscience) according to the manufacturer's instructions, and then intracellular Foxp3 was stained with anti-Foxp3-PE (e Bioscience)). […]
In a manner similar to that in Example 5, the Treg-inducing activity of mDCs treated with 14-DHE was measured. […]

[2] = tested on: mDCs (CD11b+CD11c+B220-) of EAE mice; assay: EAE model, day 11 autopsy: mDC activation markers; type: in vivo, mouse; conditions: autopsy on day 11
Description: On day 0, the 35-55 peptide (MOG35-55, Operon), a glycoprotein of myelin oligodendroglial cells, as an antigen was mixed with complete Freund's adjuvant (CFA, Difco) and then the mixture was subcutaneously administered at a dose of 200 μg/animal. Subsequently, pertussis toxin (Wako Pure Chemical Industries, Japan) was intraperitoneally administered at a dose of 200 ng/animal on day 1 and day 3, thereby inducing the onset of multiple sclerosis. During days 7 to 18, 14-DHE was intraperitoneally administered at a dose of 10 μg/animal once a day. To the vehicle group, the following solvent for 14-DHE was administered: 10% ethanol (Wako Pure Chemical Industries, Japan)/10% Cremophor (Wako Pure Chemical Industries, Japan)/80% PBS (Takara, Japan). Mice were autopsied on day 11 (when inflammation was thought to take place in vivo) to obtain biochemical data. […] A gate was set on mDCs, which are CD11b^+CD11c^+B220^− cells, and I-A/I-E (MHC class II), CD86, and CD80 were measured as activation markers.

[3] = tested on: mDCs treated with 14-DHE co-cultured with OVA-specific naive CD4+ T cells; assay: Antigen-specific Treg-inducing capacity of DCs treated with 14-DHE (Example 10); type: cell-based, mouse
Description: Various DCs were prepared similarly to (A). Next, naive CD4^+ T cells were sorted from DO11.10 mice (Charles River) having OVA-specific TCR, DCs were mixed with the sorted cells at DC:CD4^+ T=1:10 (the number of cells), and then the cells were co-cultured. At this time, the medium was supplemented with 0.5 ng/mL TGF-β1 and 0.1 μM OVA323-339 peptide and then culture was performed for 5 days. Subsequently, Treg generation efficiency was determined as in (A) above.
In a manner similar to that in Example 5, the Treg-inducing activity of mDCs treated with 14-DHE was measured. Similar measurement was also performed using DCs not treated with 14-DHE as a control.

[4] = tested on: multiple sclerosis model mouse (Experimental Autoimmune Encephalomyelitic; EAE); assay: Multiple sclerosis model mouse (EAE): disease score (Example 15); type: in vivo; conditions: 10 μg/animal i.p. once a day, days 7 to 18; vs vehicle group
Description: Eight-week-old female C57BL/6 mice were divided into the following 2 groups at 5 mice per group:
(2) 14-DHE Group (10 μg/Animal)
(§1) On day 0, the 35-55 peptide (MOG35-55, Operon), a glycoprotein of myelin oligodendroglial cells, as an antigen was mixed with complete Freund's adjuvant (CFA, Difco) and then the mixture was subcutaneously administered at a dose of 200 μg/animal. Subsequently, pertussis toxin (Wako Pure Chemical Industries, Japan) was intraperitoneally administered at a dose of 200 ng/animal on day 1 and day 3, thereby inducing the onset of multiple sclerosis. During days 7 to 18, 14-DHE was intraperitoneally administered at a dose of 10 μg/animal once a day. To the vehicle group, the following solvent for 14-DHE was administered: 10% ethanol (Wako Pure Chemical Industries, Japan)/10% Cremophor (Wako Pure Chemical Industries, Japan)/80% PBS (Takara, Japan).
During the experimental period (i.e., during days 0 to 20), disease score was determined based on the following criteria:
Score 1: Unable to freely move tail
Score 2: Unable to normally walk
Score 3: Paralysis of one hindlimb
Score 4: Paralysis of both hindlimbs
Score 5: Paralysis of forelimbs and hindlimbs

[5] = tested on: CD4+ T cells in regional lymph node cells and spleen cells of EAE mice; assay: EAE model, day 11 autopsy: CD4+ T cell proliferation (CFSE); type: in vivo, mouse
Description: as §1
Mice were autopsied on day 11 (when inflammation was thought to take place in vivo) to obtain biochemical data.
(3) Regional lymph node cells and spleen cells were stained using the CellTrace CFSE Proliferation kit (Molecular Probes). The stained cells were seeded at a concentration of 1×10^6 cells/mL and then cultured for 3 days with stimulation with 2 μM MOG. Cells were recovered, stained with CD3-PerCP and CD4-APC, and then subjected to FACS analysis. Cell proliferation was evaluated as a proportion of cells with decreased CFSE fluorescence intensity in all cells.

CC(C)[C@@H](C)/C=C/[C@@H](C)[C@H]1CC=C2C3=CC=C4C[C@@H](O)CC[C@]4(C)[C@H]3CC[C@@]21C [Sample 14-DHE, ergosta-5,7,14,22-tetraen-3β-ol]
generation of Treg compared with the control [1]: about 2 times
CD80 on mDCs, lymph node [2]: significant decrease
CD86 on mDCs, lymph node [2]: decreasing trend
I-A/I-E (MHC class II) on mDCs, lymph node [2]: decreasing trend
I-A/I-E on mDCs, spinal cord [2]: significant decrease
generation of Treg compared with the control [3]: about 2 times
accumulated disease score [4]: decreases were confirmed
incidence [4]: decreases were confirmed
maximum score [4]: decreases were confirmed
onset [4]: delayed onset
proliferation rate of CD4+ T cells in lymph node cells [5]: decreasing trend
proliferation rate of CD4+ T cells in spleen cells ([5]; with or without re-stimulation with MOG antigen): significant decrease
